Assay results: the NIST ThermoML archive (doi:10.1016/j.fluid.2013.06.021)

Test: xn = mol fraction of the nth substance listed
Conditions: 101 kPa, Liquid; for speed of sound: Sing-around technique in a fixed-path interferometer; for mass density: Vibrating tube method; for viscosity: Capillary tube (Ostwald / Ubbelohde) method

CCCCOCCO [2-butoxyethan-1-ol] + CC(C)O
Conditions	mass density, 293.15 K [kg/m3]	mass density, 298.15 K [kg/m3]	speed of sound, 293.15 K [m/s]	speed of sound, 298.15 K [m/s]	speed of sound, 303.15 K [m/s]	viscosity, 298.15 K [mPa·s]	viscosity, 303.15 K [mPa·s]
x1 = 0.0539	796.164	791.98	1178.8	1160.9	1143.4	–	–
x1 = 0.054	–	–	–	–	–	2.105	1.803
x1 = 0.1088	805.962	801.77	1190.2	1172.5	1155.2	2.114	1.819
x1 = 0.1607	814.567	810.37	1200.9	1183.5	1166.2	2.132	1.847
x1 = 0.2041	821.305	817.11	1210	1192.6	1175.3	2.145	1.866
x1 = 0.2567	828.971	824.79	1220.4	1203	1185.7	2.166	1.889
x1 = 0.3095	836.163	831.99	1230.7	1213.2	1195.9	2.184	1.923
x1 = 0.4041	847.973	843.83	1247.7	1230.4	1213	2.247	1.988
x1 = 0.5041	859.135	855	1263.9	1246.6	–	2.327	2.079
x1 = 0.6113	869.832	865.69	1279.6	1262.2	–	2.427	2.194
x1 = 0.7078	878.523	874.37	1292.2	1274.7	–	–	–
x1 = 0.7079	–	–	–	–	–	2.538	2.308
x1 = 0.8095	886.841	882.67	1304	1286.7	–	2.648	2.427
x1 = 0.857	890.465	886.29	1309.2	1291.8	–	2.714	2.487
x1 = 0.9069	894.11	889.93	1314.2	1296.8	–	2.778	2.549
x1 = 0.9527	897.317	893.12	1318.8	1301.5	–	2.838	2.604
